Values after ≈ are worked out from the molar mass of the structure shown.

These results are taken from patent US8088791B2, “Antibacterial agents” (Biots Scientific Management Pty Ltd, priority 2006, dated 2012).

For this assay, the system named is Bacillus subtilis 168CA. In words: Minimum Inhibitory Concentration (MIC) testing, broth microdilution, Bacillus subtilis. The conditions noted are these: Bacillus subtilis 168CA; read-out: Bacillus subtilis MICs Activity. The format is cell-based. As to the method:
Compounds of this invention were tested for antimicrobial activity by susceptibility testing in liquid media. MICs for compounds against each strain were determined by a broth microdilution method according to the National Committee for Clinical Laboratory Standards (NCCLS) guidelines. (NCCLS. 2000. Methods for dilution antimicrobial susceptibility tests for bacteria that grow aerobically—fifth edition. Approved standard M7-A5. NCCLS, Wayne, Pa.)
Briefly, test compounds are prepared in 100 μl of 1.6% DMSO solution in multiwell plates. Several bacterial colonies from a freshly streaked plate are transferred to an appropriate rich broth, such as Mueller Hinton. The cell suspension is adjusted to an optical density of 0.09 and further diluted 1:100 with warm 2× broth. This cell suspension is dispensed into the wells containing compound solution so that the final volume is 200 μl. The plates are incubated overnight (16-20 hours) at 37° C. and turbidity is scored by eye and quantified spectrophotometrically. The MIC is defined as the lowest concentration inhibiting visible growth.
Activities were scored as ‘A’ if the MIC was ≦8 micrograms/ml, ‘B’ if the MIC was 16 to 64 micrograms/ml and ‘C’ if the MIC was greater than 64 micrograms/ml.
On the technique in general: In broth dilution the organism is exposed to a series of concentrations in liquid medium.
As to `NC(=O)c1cccc(OCCCCC2CCCCC2)c1` [Example 44, 3-(4-Cyclohexylbutoxy)benzenecarboxamide], the MIC is under 8 µg/mL.
Under `NC(=O)c1c(F)ccc(OCc2nc(-c3ccccc3Cl)no2)c1F` [Example 254, 3-[3-(2-Chlorophenyl)-1,2,4-oxadiazol-5-yl]methoxy-2,6-difluorobenzenecarboxamide] stands under 8 µg/mL; under `CCCCC#CCCCCOc1cccc(C(N)=O)c1` [Example 48, 3-(5-Decynyloxy)benzenecarboxamide], under 8 µg/mL; under `CCOC(=O)CCCCCOc1cccc(C(N)=O)c1` [Example 37, Ethyl 6-[3-(aminocarbonyl)phenoxy]hexanoate], over 64 µg/mL.
As for `Cc1sc(-c2ccccc2)nc1CCCOc1ccc(F)c(C(N)=O)c1F` [Example 160, 2,6-Difluoro-3-[3-(5-methyl-2-phenyl-thiazol-4-yl)-propoxy]-benzamide], the MIC was under 8 µg/mL.
Consider `NC(=O)c1c(F)ccc(OCc2cn3ccccc3n2)c1F` [Example 203, 2,6-Difluoro-3-(imidazo[1,2-a]pyridin-2-ylmethoxy)benzenecarboxamide], for which the MIC is over 64 µg/mL.
As to `NC(=O)c1c(F)ccc(OCc2nc(COc3c(Cl)cccc3Cl)no2)c1F` [Example 264, 3-(3-[(2,6-Dichlorophenoxy)methyl]-1,2,4-oxadiazol-5-ylmethoxy)-2,6-difluorobenzenecarboxamide], the MIC fell in the range of 16 to 64 µg/mL (≈ 37.2 to 149 µM).
In the case of `C=C(C)COc1cccc(C(N)=O)c1` [Example 11, 3-[(2-Methyl-2-propenyl)oxy]benzenecarboxamide] it was over 64 µg/mL; in that of `COC(=O)CCCCCCCCCOc1cccc(C(N)=O)c1` [Example 38, Methyl 10-[3-(aminocarbonyl)phenoxy]decanoate], under 8 µg/mL.
In the case of `NC(=O)c1c(F)ccc(OCc2ccc3cccc(Cl)c3n2)c1F` [Example 112, 3-(8-Chloro-quinolin-2-ylmethoxy)-2,6-difluoro-benzamide] it was under 8 µg/mL; in that of `Cc1ccc2nc(COc3ccc(F)c(C(N)=O)c3F)ccc2c1` [Example 97, 2,6-Difluoro-3-(6-methyl-quinolin-2-ylmethoxy)-benzamide], under 8 µg/mL.
In the case of `CC(C)CCCOc1cccc(C(N)=O)c1` [Example 14, 3-[(4-Methylpentyl)oxy]benzenecarboxamide] it was 16 to 64 µg/mL (≈ 72.3 to 289 µM); in that of `NC(=O)c1cccc(OCCCCOc2ccccc2)c1` [Example 10, 3-(4-Phenoxybutoxy)benzenecarboxamide], under 8 µg/mL; in that of `COCCOc1cccc(C(N)=O)c1` [Example 9, 3-(2-Methoxyethoxy)benzenecarboxamide], over 64 µg/mL.
Regarding `NC(=O)c1c(F)ccc(OCc2nc(-c3cccc([N+](=O)[O-])c3)no2)c1F` [Example 259, 2,6-Difluoro-3-[3-(3-nitrophenyl)-1,2,4-oxadiazol-5-yl]methoxybenzenecarboxamide], the MIC is under 8 µg/mL.
Turning to `CCOC(=O)COc1cccc(C(N)=O)c1` [Example 33, Ethyl 2-[3-(aminocarbonyl)phenoxy]acetate], the MIC is over 64 µg/mL.
For the compound `C=CCOc1cccc(C(N)=O)c1` [Example 6, 3-(Allyloxy)benzenecarboxamide], the MIC was over 64 µg/mL.
As to `NC(=O)c1cccc(OCCCCc2ccccc2)c1` [Example 20, 3-(4-Phenylbutoxy)benzenecarboxamide], the MIC is under 8 µg/mL.
Under `CC(C)Oc1cccc(C(N)=O)c1` [Example 3, 3-Isopropoxybenzenecarboxamide] stands over 64 µg/mL; under `NC(=O)c1c(F)ccc(OCc2ccc3cc(Cl)ccc3n2)c1F` [Example 110, 3-(6-Chloro-quinolin-2-ylmethoxy)-2,6-difluoro-benzamide], under 8 µg/mL; under `Cc1cccc2nc(COc3ccc(F)c(C(N)=O)c3F)ccc12` [Example 96, 2,6-Difluoro-3-(5-methyl-quinolin-2-ylmethoxy)-benzamide], 16 to 64 µg/mL (≈ 48.7 to 195 µM).
Regarding `CCOC(=O)CCCOc1cccc(C(N)=O)c1` [Example 25, Ethyl 4-[3-(aminocarbonyl)phenoxy]butanoate], the MIC was over 64 µg/mL.
Under `CCCCCCC#CCOc1cccc(C(N)=O)c1` [Example 50, 3-(2-Nonynyloxy)benzenecarboxamide] stands under 8 µg/mL.
Under `NC(=O)c1c(F)ccc(OCc2nc(-c3ccc(Cl)c([N+](=O)[O-])c3)no2)c1F` [Example 329, 3-[3-(4-Chloro-3-nitro-phenyl)-[1,2,4]oxadiazol-5-ylmethoxy]-2,6-difluoro-benzamide] stands under 8 µg/mL.
Under `NC(=O)c1c(F)ccc(OCc2cccc([N+](=O)[O-])c2)c1F` [Example 332, 2,6-Difluoro-3-(3-nitro-benzyloxy)-benzamide] stands 16 to 64 µg/mL (≈ 51.9 to 208 µM); under `CCCOCCOc1cccc(C(N)=O)c1` [Example 16, 3-(2-Propoxyethoxy)benzenecarboxamide], over 64 µg/mL.
Regarding `CCCOc1cccc(C(N)=O)c1` [Example 2, 3-Propoxybenzenecarboxamide], the MIC was over 64 µg/mL.
As to `NC(=O)c1c(F)ccc(OCc2cccc(OCc3ccccc3)c2)c1F` [Example 154, 3-(3-Benzyloxy-benzyloxy)-2,6-difluoro-benzamide], the MIC was under 8 µg/mL.
As to `COc1cc(-c2noc(COc3ccc(F)c(C(N)=O)c3F)n2)ccc1OC(F)F` [Example 328, 3-[3-(4-Difluoromethoxy-3-methoxy-phenyl)-[1,2,4]oxadiazol-5-ylmethoxy]-2,6-difluoro-benzamide], the MIC was under 8 µg/mL.
Turning to `NC(=O)c1cccc(OCCc2ccc(F)cc2)c1` [Example 34, 3-[(4-Fluorophenethyl)oxy]benzenecarboxamide], the MIC was 16 to 64 µg/mL (≈ 61.7 to 247 µM).
Under `NC(=O)c1cccc(OCc2ccc3ccccc3n2)c1` [Example 23, 3-(2-Quinolinylmethoxy)benzenecarboxamide] stands 16 to 64 µg/mL (≈ 57.5 to 230 µM); under `CC(C)CCOc1cccc(C(N)=O)c1` [Example 13, 3-(Isopentyloxy)benzenecarboxamide], 16 to 64 µg/mL (≈ 77.2 to 309 µM); under `NC(=O)c1cccc(OCC2CC2)c1` [Example 4, 3-(Cyclopropylmethoxy)benzenecarboxamide], over 64 µg/mL.
In the case of `COc1ccc(CCOc2cccc(C(N)=O)c2)cc1` [Example 35, 3-[(4-Methoxyphenethyl)oxy]benzenecarboxamide] it was 16 to 64 µg/mL (≈ 59 to 236 µM); in that of `NC(=O)c1c(F)ccc(OCc2nc(-c3cccc(Cl)c3)no2)c1F` [Example 255, 3-[3-(3-Chlorophenyl)-1,2,4-oxadiazol-5-yl]methoxy-2,6-difluorobenzenecarboxamide], under 8 µg/mL.
Regarding `NC(=O)c1c(F)ccc(OCc2nc(-c3ccccc3O)no2)c1F` [Example 253, 2,6-Difluoro-3-[3-(2-hydroxyphenyl)-1,2,4-oxadiazol-5-yl]methoxybenzenecarboxamide], the MIC is 16 to 64 µg/mL (≈ 46.1 to 184 µM).
Take `NC(=O)c1c(F)ccc(OCc2nc(-c3cccc(C(F)(F)F)c3)no2)c1F` [Example 258, 2,6-Difluoro-3-(3-[3-(trifluoromethyl)phenyl]-1,2,4-oxadiazol-5-ylmethoxy)benzenecarboxamide]: the MIC was under 8 µg/mL.
In the case of `COc1ccc(-c2noc(COc3ccc(F)c(C(N)=O)c3F)n2)c(OC)c1` [Example 261, 3-[3-(2,4-Dimethoxyphenyl)-1,2,4-oxadiazol-5-yl]methoxy-2,6-difluorobenzenecarboxamide] it was 16 to 64 µg/mL (≈ 40.9 to 164 µM).
